In the oligonucleotide strings, read from the 5' end, every base follows the letter of its sugar. An asterisk marks phosphorothioate; unmarked linkages are phosphodiester. Other units and linkages are bracketed, terminal groups are in braces. A string of capitals states the bases alone. e = 2'-O-(2-methoxyethyl) (MOE); [5mC] = 5-methylcytosine; d = 2'-deoxy (DNA)
Assays:
mir-30a pri-miRNA = assay: mir-30a luciferase reporter (pGL3C-M30-4X) assay in 293T cells; assay type: cell-based, human; conditions: for percent control luciferase expression: 150 nM oligomeric compound, then mir-30a pri-miRNA mimic 200 nM, pGL3C-M30-4X normalized to pRL-CMV; for reversing the mir-30a miRNA-mediated silencing of luciferase reporter: 150 nM, then mir-30a pri-miRNA mimic
Excerpt: In one embodiment of the invention, oligomeric compounds targeting the hairpin structure of mir-30a pri-miRNA were designed and tested for their effects on miRNA signaling in 293T cells (American Type Culture Collection (Manassas, Va.)).
A synthetic DNA fragment comprised of four tandem repeats of the target site for mir-30a was cloned into the vector pGL3-C (purchased from Promega Corp., Madison Wis.) at the unique XbaI site (pGL3C-M30-4X). This places the target site in the 3′UTR of the luciferase reporter vector. An oligomeric compound mimicking the mir-30a pri-miRNA ([…] […], herein incorporated as SEQ ID NO: 1749) was in vitro transcribed using T7 RNA polymerase and a DNA template produced by PCR (the T7 promoter is shown in bold).
On the day prior to the experiment 24-well plates were seeded with 293T cells at 50% confluency. The following morning cells were treated with oligomeric compounds targeted to the mir-30a pri-miRNA mimic. All of the compounds are 20 nucleobases in length having either a phosphorothioate backbone throughout (PS) or a phosphodiester backbone throughout (PO). […] All cytidine residues are 5-methylcytidines. The remaining compounds in the table have 2′-methoxyethoxy (MOE) nucleotides throughout with either a phosphorothioate (PS) or phosphodiester (PO) internucleoside linkages.
Cells were washed once with PBS then oligomeric compounds were added to triplicate wells at 150 nM in OPTI-MEM™ media and 4.5 μl/ml LIPOFECTIN™ reagent (Invitrogen Corporation, Carlsbad, Calif.). After 3 hours, the media was removed, and the cells were treated with the mir-30a pri-miRNA mimic at 200 nM in OPTI-MEM™ with 6 μl/ml LIPOFECTIN™ reagent. After 3 hours the media was removed from the cells. The reporter plasmid, pGL3C-M30-4X, was then transfected using SuperFect reagent. 20 μg of pGL3C-M30-4X and 2 μg of pRL-CMV, a plasmid expressing Renilla luciferase, were suspended in 600 μL of serum-free DMEM to which 120 μl of Superfect was added. After a 5 minute incubation, 6 mls of DMEM+10% FCS was added. 125 μL of the plasmid/SuperFect suspension was added to each well. After a 2 hour incubation cells were washed and fresh growth media added. Cells were incubated overnight.
The following morning the media was removed and the cells were lysed in 120 μL passive lysis buffer (PLB; Promega). 40 μL of the lysate was then assayed for Photinus (PL) and Renilla (RL) luciferases using a Dual Luciferase Assay kit (Promega) according to the manufacturer's protocol. The results below are given as percent pGL3C-M30-4× expression (PL) normalized to pRL-CMV expression (RL). The 20-nucleobase oligonucleotide random-mer ISIS Number 29848 was used as a negative control.

IL-12 mRNA = IL-12 mRNA in LPS-activated primary murine macrophages; assay type: cell-based, mouse; conditions: normalized to LPS-treated cells without oligomeric compound
HuVECs = assay: Endothelial tube formation assay in HuVECs; conditions: 75 nM oligomeric compound, Table 59
Description: In some embodiments, HUVECs are used to measure the effects of oligomeric compounds of the invention on endothelial tube formation activity. The tube formation assay is performed using an in vitro Angiogenesis Assay Kit (Chemicon International, Temecula, Calif.).
Untreated control cells receive LIPOFECTIN™ only.
Approximately fifty hours after transfection, cells are transferred to 96-well plates coated with ECMatrix™ (Chemicon International). Under these conditions, untreated HUVECs form tube-like structures. After an overnight incubation at 37° C., treated and untreated cells are inspected by light microscopy. Tube formation in cells treated with oligomeric compounds is compared to that in untreated control cells. Individual wells are assigned discrete scores from 1 to 5 depending on the extent of tube formation. A score of 1 refers to a well with no tube formation while a score of 5 is given to wells where all cells are forming an extensive tubular network.
In one embodiment, primary human umbilical vein endothelial cells (HuVECs) were used to measure the effects of oligomeric compounds targeted to miRNAs on tube formation activity. HuVECs were routinely cultured in EBM (Clonetics Corporation, Walkersville, Md.) supplemented with SingleQuots supplements (Clonetics Corporation, Walkersville, Md.). […] HuVECs are plated at 3000 cells/well in 96-well plates. One day later, cells are transfected with oligomeric compounds. The tube formation assay is performed using an in vitro Angiogenesis Assay Kit (Chemicon International, Temecula, Calif.).
ISIS 29248 and ISIS 196103 are chimeric 5-10-52′-MOE gapmer oligonucleotides. […] All cytidine residues are 5-methylcytidines. ISIS 342672 (SEQ ID NO: 789) contains 13 mismatches with respect to the mature mir-143 miRNA, and was also used as a negative control. ISIS 342672 is a uniform 2′-MOE phosphorothioate oligomeric compound 22 nucleotides in length. All cytidine residues are 5-methylcytidines.
Oligomeric compound was mixed with LIPOFECTIN™ (Invitrogen Life Technologies, Carlsbad, Calif.) in OPTI-MEM™ (Invitrogen Life Technologies, Carlsbad, Calif.) to achieve a final concentration of 75 nM of oligomeric compound and 2.25 μg/mL LIPOFECTIN™. Before adding to cells, the oligomeric compound, LIPOFECTIN™ and OPTI-MEM™ were mixed thoroughly and incubated for 0.5 hrs. Untreated control cells received LIPOFECTIN™ only. […] Compounds targeted to miRNAs were tested in triplicate, and ISIS 29848 was tested in up to six replicates. […] 100 μL of full growth medium was added to each well. Fifty hours after transfection, cells are transferred to 96-well plates coated with ECMa-trix™ (Chemicon Inter-national). Under these conditions, untreated HuVECs form tube-like structures.

Substance	percent control luciferase expression (mir-30a pri-miRNA) [percent control]	reversing the mir-30a miRNA-mediated silencing of luciferase reporter (mir-30a pri-miRNA)	further results
328085 (antisense CATCTGTGGCTTCACAGCTT; all 2'-MOE, all phosphorothioate, methylation of C not given here; designed as pseudo half-knot compound) [compound 328085]	72		
328087 (antisense AAGCCCATCTGTGGCTTCAC; all 2'-MOE, all phosphorothioate, methylation of C not given here; pseudo half-knot design targeting pri-miRNA hairpin) [compound 328087]	83		
ISIS 328087: 2′-MOE throughout; pseudo half-knot compound targeting the mir-30a pri-miRNA (antisense AAGCCCATCTGTGGCTTCAC; all 2'-MOE, all phosphorothioate, methylation of C not given here; pseudo half-knot design targeting pri-miRNA hairpin)		restoring luciferase reporter expression to near control levels	
ISIS 328086: 5-10-5 2′-MOE gapmer, pseudo half-knot compound targeting the mir-30a pri-miRNA (antisense e[5mC]*eA*eT*e[5mC]*eT*dG*dT*dG*dG*d[5mC]*dT*dT*d[5mC]*dA*d[5mC]*eA*eG*e[5mC]*eT*eT; pseudo half-knot compound)		restoring luciferase reporter expression to near control levels	
ISIS 328088: 5-10-5 2′-MOE gapmer, pseudo half-knot compound targeting the mir-30a pri-miRNA (antisense eA*eA*eG*e[5mC]*e[5mC]*d[5mC]*dA*dT*d[5mC]*dT*dG*dT*dG*dG*d[5mC]*eT*eT*e[5mC]*eA*e[5mC]; pseudo half-knot compound)		restoring luciferase reporter expression to near control levels	
328088 (antisense eA*eA*eG*e[5mC]*e[5mC]*d[5mC]*dA*dT*d[5mC]*dT*dG*dT*dG*dG*d[5mC]*eT*eT*e[5mC]*eA*e[5mC]) [compound 328088]	107		
328081 (antisense eT*eG*eA*eA*eA*dG*d[5mC]*d[5mC]*d[5mC]*dA*dT*d[5mC]*dT*dG*dT*eG*eG*e[5mC]*eT*eT) [compound 328081]	80		
327874 (antisense eG*e[5mC]*eT*eG*e[5mC]*eA*eA*eA*e[5mC]*eA*eT*e[5mC]*e[5mC]*eG*eA*e[5mC]*eT*eG*eA*eA*eA*eG) [compound 327874]	66		IL-12 mRNA expression, −IFN % UTC (IL-12 mRNA; 300 nM oligomeric compound and LPS, no IFN-gamma pretreatment, single experiment): 202 % UTC; IL-12 mRNA expression, +IFN % UTC (IL-12 mRNA; 300 nM oligomeric compound, stimulation with IFN-gamma and LPS, average of 2 experiments): 15 % UTC; % Activity Relative to UTC (tube formation) (HuVECs): 46.7%
